Patent publication US20250092017A1, “2-PIPERIDYL OR 2-PYRAZOLYL SUBSTITUTED PYRIMIDINE COMPOUND SERVING AS EGFR INHIBITOR” (SUZHOU PUHE BIOPHARMA CO., LTD., priority 2022, published 2025)

Key:
[1] = biological target: EGFR (L858R/C797S) (Homo sapiens, UniProt P00533, C797S/L858R); assay: MSA (Mobility Shift Assay) kinase activity, EGFR-L858R-C797S; format: biochemical
Description: (§1) The MSA (Mobility Shift Assay) method was used to detect the effects of small molecule inhibitors on the kinase activity of EGFR wild type and its mutants (EGFR^wt, EGFR-L858R, EGFR-L858R-T790M-C797S, EGFR-L858R-C797S).
(§2) 10 μL of kinase solution at 2.5 times the final concentration was added to the compound wells and positive control Max wells; 10 μL of 1x kinase buffer was added to the negative control Min wells. The mixture was centrifuged at 1000 rpm for 30 seconds, and the reaction plate was shaken to mix the solution well and then incubated at room temperature for 10 minutes. A mixed solution of ATP and kinase substrate at 5/3 times the final concentration was prepared in 1x kinase buffer. 15 μL of a mixed solution of ATP and substrate at 5/3 times the final concentration was added to initiate the reaction. The 384-well plate was centrifuged at 1000 rpm for 30 seconds, and shaken to mix the solution well and then incubated at room temperature for the corresponding time. 30 μL of stop detection solution was added to stop the kinase reaction, and the mixture was centrifuged at 1000 rpm for 30 seconds, and then to mixed well by shaking. The conversion rate was read using Caliper EZ Reader.
(§3) wherein: Conversion %_sample is the conversion rate reading of the sample; Conversion %_min is the mean of the negative control wells, representing the conversion rate reading of the wells without enzyme activity; Conversion %_max is the mean of the positive control wells, representing the conversion rate reading of the wells without compound inhibition.
(§4) The log (inhibitor) vs. response —Variable slope of the analysis software GraphPad Prism 5 was used to fit the dose-effect curve, where the log value of the concentration was used as the X-axis and the percentage inhibition rate was used as the Y-axis, to obtain the IC50 value of each compound on the enzyme activity.
(§5) The calculation formula is Y=Bottom+(Top-Bottom)/(1+10^((Log IC50−X)*Hill Slope))

[2] = biological target: EGFR (wild-type) (Homo sapiens, UniProt P00533); assay: MSA (Mobility Shift Assay) kinase activity, EGFR wild type; format: biochemical; settings: read-out: EGFR wt/ IC50/nM
Description: as §1, §2, §3, §4, §5

[3] = biological target: EGFR (L858R/T790M/C797S) (Homo sapiens, UniProt P00533, C797S/L858R/T790M); assay: MSA (Mobility Shift Assay) kinase activity, EGFR-L858R-T790M-C797S; format: biochemical
Description: as §1, §2, §3, §4, §5

[4] = system: Ba/F3-FL-EGFR-del19-C797S; assay: CellTiter-Glo proliferation, Ba/F3-FL-EGFR-del19-C797S; format: cell-based; settings: 72 h, proliferation, 72 hours, CellTiter-Glo; read-out: Ba/F3-FL-EGFR-del19-C797S IC50/nM
Description: (§6) Promega CellTiter-Glo reagent was used to detect the effects of small molecule inhibitors on the proliferation of five Ba/F3 cell lines (Ba/F3-FL-EGFR, Ba/F3-FL-EGFR-L858R, Ba/F3-FL-EGFR-L858R-T790M-C797S, Ba/F3-TEL-EGFR-L858R-C797S and Ba/F3-FL-EGFR-del19-C797S).
(§7) The cell lines were cultured in an incubator at 37° C. and 5% CO2. Cells were passaged regularly and cells in the logarithmic phase were used for plating. 95 μL of cell suspension was added to each well of the cell plate, and culture medium without cells (containing 0.1% DMSO) was added to the Min control wells. Substance addition for compound detection cell plate: 5 μL of 20× compound working solution was added to the cell culture plate as shown in the table below. 50 μL of DMSO-cell culture medium mixture was added to the Max control, with the final DMSO concentration of 0.1%. 5 μL of DMSO-cell culture medium mixture was added to the Max control. The final DMSO concentration was 0.1%.
(§8) The compounds to be tested were added as per the table below
(§9) Cell viability was detected by CellTiter-Glo luminescence assay. Data analysis:
(§10) The cell proliferation inhibition rate (Inhibition Rate) data was processed using the following formula: […]
(§11) wherein: RLUDrug represents the relative luminescence unit of the cells with the addition of drug, RLUMin represents the luminescence unit of the culture medium, and RLUMax represents the relative luminescence unit of the cells with the addition of DMSO.
(§12) The inhibition rates corresponding to different concentrations of compounds were calculated in EXCEL, and then the inhibition rate curve was plotted using GraphPad Prism software and related parameters including the maximum and minimum inhibition rates of cells and IC50 values were calculated.

[5] = biological target: T1, Ba/F3-FL-EGFR (Homo sapiens, UniProt P00533); assay: CellTiter-Glo proliferation, Ba/F3-FL-EGFR; format: cell-based; settings: 72 hours, read-out: Ba/F3-FL-EGFR IC50/nM
T1 construct: FL read as full length
Description: as §6, §7, §8, §9, §10, §11, §12

[6] = biological target: T2, Ba/F3-TEL-EGFR-L858R-C797S (Homo sapiens, UniProt P00533, C797S/L858R, cells depend on it); assay: CellTiter-Glo proliferation, Ba/F3-TEL-EGFR-L858R-C797S; format: cell-based; settings: 72 hours, read-out: Ba/F3-TEL-EGFR-L858R-C797S IC50/nM
T2 construct: fused on or other part: N-terminal TEL (ETV6) oligomerising part fused to the EGFR intracellular/kinase part; P41212 (Transcription factor ETV6)
Description: as §6, §7, §8, §9, §10, §11, §12

[7] = biological target: Ba/F3-FL-EGFR-L858R-T790M-C797S (Homo sapiens, UniProt P00533, T790M/C797S/L858R, cells depend on it); assay: CellTiter-Glo proliferation, Ba/F3-FL-EGFR-L858R-T790M-C797S; format: cell-based; settings: 72 hours, read-out: Ba/F3-FL-EGFR-L858R-T790M-C797S IC50/nM
Description: as §6, §7, §8, §9, §10, §11, §12

[8] = biological target: Ba/F3-FL-EGFR-L858R (Homo sapiens, UniProt P00533, L858R, cells depend on it); assay: CellTiter-Glo proliferation, Ba/F3-FL-EGFR-L858R; format: cell-based; settings: 72 hours, read-out: Ba/F3-FL-EGFR-L858R IC50/nM
Description: as §6, §7, §8, §9, §10, §11, §12

T2 sequence (P00533 whole entry C797S/L858R, the tested form may be a part): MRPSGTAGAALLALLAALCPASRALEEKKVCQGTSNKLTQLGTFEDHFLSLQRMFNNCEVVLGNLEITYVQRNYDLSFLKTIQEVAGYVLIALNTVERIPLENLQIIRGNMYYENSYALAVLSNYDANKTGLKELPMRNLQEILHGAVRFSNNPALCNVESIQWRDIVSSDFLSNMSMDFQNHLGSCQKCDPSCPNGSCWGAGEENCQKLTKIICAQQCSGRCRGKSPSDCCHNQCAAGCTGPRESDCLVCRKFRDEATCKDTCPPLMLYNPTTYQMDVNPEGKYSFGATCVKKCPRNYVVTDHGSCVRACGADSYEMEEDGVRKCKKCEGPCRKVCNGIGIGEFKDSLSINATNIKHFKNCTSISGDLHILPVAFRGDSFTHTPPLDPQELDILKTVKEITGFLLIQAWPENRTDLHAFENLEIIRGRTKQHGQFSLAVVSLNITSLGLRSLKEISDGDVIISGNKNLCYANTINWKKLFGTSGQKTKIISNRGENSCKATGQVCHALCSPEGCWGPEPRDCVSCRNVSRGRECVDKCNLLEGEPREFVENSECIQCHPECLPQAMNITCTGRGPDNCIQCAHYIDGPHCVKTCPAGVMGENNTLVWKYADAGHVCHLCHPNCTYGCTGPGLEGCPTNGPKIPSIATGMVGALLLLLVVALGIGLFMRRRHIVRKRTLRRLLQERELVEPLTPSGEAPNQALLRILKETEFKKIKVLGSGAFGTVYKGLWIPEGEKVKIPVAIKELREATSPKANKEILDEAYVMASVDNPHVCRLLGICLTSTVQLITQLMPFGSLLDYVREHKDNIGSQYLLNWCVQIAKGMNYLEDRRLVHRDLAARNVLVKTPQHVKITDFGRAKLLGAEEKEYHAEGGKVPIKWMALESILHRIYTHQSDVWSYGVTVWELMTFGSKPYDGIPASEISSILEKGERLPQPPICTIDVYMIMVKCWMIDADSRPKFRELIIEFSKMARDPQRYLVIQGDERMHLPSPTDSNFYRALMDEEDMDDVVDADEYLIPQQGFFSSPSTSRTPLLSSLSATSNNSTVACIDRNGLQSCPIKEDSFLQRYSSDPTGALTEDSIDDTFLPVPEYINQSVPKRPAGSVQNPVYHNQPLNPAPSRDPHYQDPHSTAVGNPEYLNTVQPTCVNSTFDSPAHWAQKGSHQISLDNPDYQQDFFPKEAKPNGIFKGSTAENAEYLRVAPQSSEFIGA
T1 sequence (P00533 whole entry, change not shown): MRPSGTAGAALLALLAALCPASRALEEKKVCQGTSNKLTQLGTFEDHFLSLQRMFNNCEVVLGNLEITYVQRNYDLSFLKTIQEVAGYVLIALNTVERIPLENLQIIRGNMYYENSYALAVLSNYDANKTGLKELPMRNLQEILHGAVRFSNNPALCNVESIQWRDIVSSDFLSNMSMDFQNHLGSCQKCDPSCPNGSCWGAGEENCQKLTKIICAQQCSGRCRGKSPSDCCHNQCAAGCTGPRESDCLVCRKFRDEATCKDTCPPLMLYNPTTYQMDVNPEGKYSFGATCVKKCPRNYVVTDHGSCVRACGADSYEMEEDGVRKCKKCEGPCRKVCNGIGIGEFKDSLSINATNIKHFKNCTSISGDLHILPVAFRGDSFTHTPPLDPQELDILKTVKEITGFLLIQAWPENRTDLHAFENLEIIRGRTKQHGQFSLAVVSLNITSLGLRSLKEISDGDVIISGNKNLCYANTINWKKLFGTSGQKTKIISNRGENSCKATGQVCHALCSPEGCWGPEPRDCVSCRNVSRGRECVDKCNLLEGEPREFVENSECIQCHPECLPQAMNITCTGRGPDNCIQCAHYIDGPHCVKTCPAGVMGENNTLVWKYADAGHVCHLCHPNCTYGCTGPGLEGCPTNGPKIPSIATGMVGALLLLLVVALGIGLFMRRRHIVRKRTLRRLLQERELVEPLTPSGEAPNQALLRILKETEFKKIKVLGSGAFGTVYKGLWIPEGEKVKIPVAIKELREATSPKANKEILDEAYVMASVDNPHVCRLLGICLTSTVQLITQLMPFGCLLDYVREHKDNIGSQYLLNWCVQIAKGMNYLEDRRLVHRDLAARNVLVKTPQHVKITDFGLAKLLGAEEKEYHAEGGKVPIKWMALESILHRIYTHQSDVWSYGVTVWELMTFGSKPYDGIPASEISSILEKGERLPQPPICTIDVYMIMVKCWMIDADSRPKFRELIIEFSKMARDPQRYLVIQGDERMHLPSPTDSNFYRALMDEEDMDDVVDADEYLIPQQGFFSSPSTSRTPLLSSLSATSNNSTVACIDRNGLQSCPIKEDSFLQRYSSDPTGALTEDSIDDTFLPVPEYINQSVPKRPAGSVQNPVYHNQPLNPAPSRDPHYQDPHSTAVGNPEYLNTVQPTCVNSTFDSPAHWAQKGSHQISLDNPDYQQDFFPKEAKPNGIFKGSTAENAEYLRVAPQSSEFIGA
EGFR (L858R/C797S), sequence (P00533 25-1210 C797S/L858R): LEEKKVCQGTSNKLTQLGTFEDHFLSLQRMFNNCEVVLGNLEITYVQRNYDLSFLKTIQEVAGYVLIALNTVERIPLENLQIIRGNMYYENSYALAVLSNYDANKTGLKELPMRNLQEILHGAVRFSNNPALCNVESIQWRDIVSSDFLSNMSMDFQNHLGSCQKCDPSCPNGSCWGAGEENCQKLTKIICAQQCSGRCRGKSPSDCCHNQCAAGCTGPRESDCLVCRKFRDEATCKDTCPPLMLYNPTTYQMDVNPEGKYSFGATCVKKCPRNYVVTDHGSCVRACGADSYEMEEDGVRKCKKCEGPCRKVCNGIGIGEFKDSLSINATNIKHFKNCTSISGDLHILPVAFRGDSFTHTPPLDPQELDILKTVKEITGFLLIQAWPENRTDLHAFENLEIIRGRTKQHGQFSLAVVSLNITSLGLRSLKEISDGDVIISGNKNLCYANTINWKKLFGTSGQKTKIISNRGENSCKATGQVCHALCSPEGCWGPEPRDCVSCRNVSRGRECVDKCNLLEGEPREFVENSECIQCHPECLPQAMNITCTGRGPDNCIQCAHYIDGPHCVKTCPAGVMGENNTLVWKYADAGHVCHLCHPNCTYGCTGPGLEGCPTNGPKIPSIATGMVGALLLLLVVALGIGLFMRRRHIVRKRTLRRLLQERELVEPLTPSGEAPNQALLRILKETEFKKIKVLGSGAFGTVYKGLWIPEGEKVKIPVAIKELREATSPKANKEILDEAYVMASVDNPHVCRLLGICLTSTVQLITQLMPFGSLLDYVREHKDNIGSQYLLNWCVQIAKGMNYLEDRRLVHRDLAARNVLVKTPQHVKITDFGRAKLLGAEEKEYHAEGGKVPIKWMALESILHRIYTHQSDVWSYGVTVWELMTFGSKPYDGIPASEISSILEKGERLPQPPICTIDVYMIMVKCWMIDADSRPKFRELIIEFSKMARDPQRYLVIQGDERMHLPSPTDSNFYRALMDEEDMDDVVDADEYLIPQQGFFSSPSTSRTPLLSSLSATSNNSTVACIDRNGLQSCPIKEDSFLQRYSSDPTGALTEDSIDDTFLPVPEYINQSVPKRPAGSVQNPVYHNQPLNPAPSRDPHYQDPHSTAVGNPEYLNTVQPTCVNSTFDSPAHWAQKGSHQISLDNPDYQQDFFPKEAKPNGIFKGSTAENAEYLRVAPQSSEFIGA
EGFR (wild-type), sequence (P00533 25-1210): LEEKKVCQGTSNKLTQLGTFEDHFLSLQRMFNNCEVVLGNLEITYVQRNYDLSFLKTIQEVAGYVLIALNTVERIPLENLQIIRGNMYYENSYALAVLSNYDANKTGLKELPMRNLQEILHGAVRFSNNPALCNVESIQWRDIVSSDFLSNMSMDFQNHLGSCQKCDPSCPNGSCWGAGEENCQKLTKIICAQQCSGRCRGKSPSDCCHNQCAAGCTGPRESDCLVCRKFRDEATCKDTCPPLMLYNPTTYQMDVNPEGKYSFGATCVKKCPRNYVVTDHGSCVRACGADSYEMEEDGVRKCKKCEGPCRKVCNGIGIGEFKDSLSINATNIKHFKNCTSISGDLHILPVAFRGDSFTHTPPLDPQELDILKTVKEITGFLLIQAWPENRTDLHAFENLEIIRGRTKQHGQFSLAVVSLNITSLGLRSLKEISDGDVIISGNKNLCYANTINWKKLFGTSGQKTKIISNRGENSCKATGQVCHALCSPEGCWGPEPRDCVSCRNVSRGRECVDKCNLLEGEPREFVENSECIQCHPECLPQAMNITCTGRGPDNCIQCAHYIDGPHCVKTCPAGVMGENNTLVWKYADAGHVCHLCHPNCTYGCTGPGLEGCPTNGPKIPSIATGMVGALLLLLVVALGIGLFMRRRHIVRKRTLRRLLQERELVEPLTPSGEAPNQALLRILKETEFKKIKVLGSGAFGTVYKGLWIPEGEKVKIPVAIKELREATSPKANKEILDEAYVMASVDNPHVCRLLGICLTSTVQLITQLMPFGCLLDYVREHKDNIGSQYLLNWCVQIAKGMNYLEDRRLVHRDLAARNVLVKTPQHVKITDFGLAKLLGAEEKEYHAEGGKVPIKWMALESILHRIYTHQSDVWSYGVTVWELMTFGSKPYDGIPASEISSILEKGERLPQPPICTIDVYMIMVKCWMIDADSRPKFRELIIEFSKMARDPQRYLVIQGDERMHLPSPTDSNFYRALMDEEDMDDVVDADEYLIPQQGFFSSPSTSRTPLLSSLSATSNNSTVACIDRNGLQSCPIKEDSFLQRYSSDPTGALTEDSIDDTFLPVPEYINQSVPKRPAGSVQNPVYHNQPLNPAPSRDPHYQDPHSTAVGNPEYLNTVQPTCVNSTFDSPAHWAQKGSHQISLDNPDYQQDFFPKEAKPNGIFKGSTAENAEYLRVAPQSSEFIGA

Structure (SMILES) | IC50 [1] [nM] | IC50 [2] [nM] | IC50 [3] [nM] | IC50 [4] [nM] | GI50 [5] [nM] | GI50 [6] [nM] | GI50 [7] [nM] | GI50 [8] [nM]
CC(C)c1ccc(N2CC(CS(C)(=O)=O)C2)c2cnc(Nc3ccnc(-c4cnn(S(=O)(=O)C(F)(F)F)c4)n3)cc12 [Compound H8] | 6.4 | > 100 | 3.5 |  |  |  |  | 
CCCS(=O)(=O)N(C)[C@H]1CN(c2ccc(C(C)C)c3cc(Nc4ccnc(-c5cnn(S(=O)(=O)C6CC6)c5)n4)ncc23)[C@@H]1C [Compound H33] |  |  |  | 7.1 | 202 | 5.9 | 13 | 14
CCCS(=O)(=O)C[C@H]1CN(c2ccc(C(C)C)c3cc(Nc4ccnc(-c5cnn(S(=O)(=O)C6CC6)c5)n4)ncc23)[C@@H]1C [Compound H34] |  |  |  | 37 | 656 | 28 | 73 | 65
CC(C)c1ccc(N2CC(NS(=O)(=O)N(C)C)C2)c2cnc(Nc3ccnc(N4CCC(O)C(F)C4)n3)cc12 (stereo not drawn) [Compound P27] |  |  |  | 226 | 2200 | 74 | 64 | 169
CCN(C1CN(c2ccc(C(C)C)c3cc(Nc4ccnc(N5CCC(OC)C(F)C5)n4)ncc23)C1)S(C)(=O)=O (stereo not drawn) [Compound P31] |  |  |  | 295 | 1460 | 19 | 18 | 86
CC(=O)NC1CN(c2ccc(C(C)C)c3cc(Nc4ccnc(N5CCC(O)C(F)C5)n4)ncc23)C1 (stereo not drawn) [Compound P35] |  |  |  | 3120 | 8760 | 1690 | 1660 | 2520
COC1CCN(c2nccc(Nc3cc4c(C(C)C)ccc(N5CC(NS(=O)(=O)C6COC6)C5)c4cn3)n2)CC1F (stereo not drawn) [Compound P37] |  |  |  | 339 | 1140 | 33 | 34 | 83
COC1CCN(c2nccc(Nc3cc4c(C(C)C)ccc(N5C[C@H](NS(C)(=O)=O)[C@H]5C)c4cn3)n2)CC1F (stereo partly drawn) [Compound P38] |  |  |  | 76 | 540 | 7 | 5.4 | 15
CC(C)c1ccc(N2CC(N(C)S(C)(=O)=O)C2)c2cnc(Nc3ccnc(N4CC[C@H](O)[C@H](F)C4)n3)cc12 [Compound P39b] |  |  |  | 60 | 760 | 16 | 14 | 24
CO[C@@H]1CCN(c2nccc(Nc3cc4c(C(C)C)ccc(N5C[C@H](N(C)S(C)(=O)=O)[C@H]5C)c4cn3)n2)C[C@@H]1F [Compound P40a] |  |  |  | 53 | 421 | 5.8 | 2.5 | 20
CO[C@H]1CCN(c2nccc(Nc3cc4c(C(C)C)ccc(N5C[C@H](N(C)S(C)(=O)=O)[C@H]5C)c4cn3)n2)C[C@H]1F [Compound P40b] |  |  |  | 81 | 465 | 5.9 | 4.8 | 25
CCS(=O)(=O)N(C)[C@H]1CN(c2ccc(C(C)C)c3cc(Nc4ccnc(N5CCC(OC)C(F)C5)n4)ncc23)[C@@H]1C (stereo partly drawn) [Compound P43] |  |  |  | 142 | 593 | 9.8 | 5.6 | 36
CCS(=O)(=O)N[C@H]1CN(c2ccc(C(C)C)c3cc(Nc4ccnc(N5CCC(OC)C(F)C5)n4)ncc23)[C@@H]1C (stereo partly drawn) [Compound P44] |  |  |  | 110 | 775 | 10 | 6.7 | 21
CCS(=O)(=O)NC1CN(c2ccc(C(C)C)c3cc(Nc4ccnc(N5CCC(O)C(F)C5)n4)ncc23)C1 (stereo not drawn) [Compound P47] |  |  |  | 179 | 1610 | 38 | 42 | 113
CCCS(=O)(=O)NC1CN(c2ccc(C(C)C)c3cc(Nc4ccnc(N5CCC(O)C(F)C5)n4)ncc23)C1 (stereo not drawn) [Compound P48] |  |  |  | 144 | 1170 | 29 | 31 | 76

Further lines, results first:

IC50 [1] [nM] | IC50 [2] [nM] | IC50 [3] [nM] | IC50 [4] [nM] | GI50 [5] [nM] | GI50 [6] [nM] | GI50 [7] [nM] | GI50 [8] [nM] | Structure (SMILES)
12 | > 100 | 6.3 |  |  |  |  |  | CC(C)c1ccc(N2CC(CS(C)(=O)=O)C2)c2cnc(Nc3ccnc(-c4cnn(S(=O)(=O)C5CCCCC5)c4)n3)cc12 [Compound H9]
24.1 | > 100 | 0.28 |  |  |  |  |  | CC(C)c1cc(C#N)c(N2CC(CS(C)(=O)=O)C2)c2cnc(Nc3ccnc(N4CCC(O)C(F)C4)n3)cc12 (stereo not drawn) [Compound P16]
> 100 | > 100 | 9.9 |  |  |  |  |  | CC(C)c1ccc(N2CC(c3cscn3)C2)c2cnc(Nc3ccnc(N4CCC(O)C(F)C4)n3)cc12 (stereo not drawn) [Compound P18]
 |  |  | 123 | 565 | 16 | 8.9 | 22 | CCCS(=O)(=O)N[C@H]1CN(c2ccc(C(C)C)c3cc(Nc4ccnc(N5CCC(OC)C(F)C5)n4)ncc23)[C@@H]1C (stereo partly drawn) [Compound P32]
 |  |  | 351 | 1500 | 115 | 91 | 218 | CC(C)c1ccc(N2CC(NS(=O)(=O)c3ccoc3)C2)c2cnc(Nc3ccnc(N4CCC(O)C(F)C4)n3)cc12 (stereo not drawn) [Compound P33]
 |  |  | 234 | 903 | 83 | 78 | 206 | CC(C)c1ccc(N2CC(N3CCCS3(=O)=O)C2)c2cnc(Nc3ccnc(N4CCC(O)C(F)C4)n3)cc12 (stereo not drawn) [Compound P34]
 |  |  | 159 | 1090 | 8.3 | 14 | 33 | COC1CCN(c2nccc(Nc3cc4c(C(C)C)ccc(N5CC(N(C)S(C)(=O)=O)C5)c4cn3)n2)CC1F (stereo not drawn) [Compound P36]
 |  |  | 90 | 761 | 6.6 | 5.8 | 16 | [2H]C([2H])([2H])N([C@H]1CN(c2ccc(C(C)C)c3cc(Nc4ccnc(N5CCC(OC)C(F)C5)n4)ncc23)[C@@H]1C)S(C)(=O)=O (stereo partly drawn) [Compound P42]
 |  |  | 316 | 1070 | 36 | 38 | 121 | COCCS(=O)(=O)N(C)C1CN(c2ccc(C(C)C)c3cc(Nc4ccnc(N5CCC(OC)C(F)C5)n4)ncc23)C1 (stereo not drawn) [Compound P49]
 |  |  | 3510 | 6620 | 542 | 720 | 1890 | COC1CCN(c2nccc(Nc3cc4c(C(C)C)ccc(N5CC(N(C)S(=O)(=O)C(F)(F)F)C5)c4cn3)n2)CC1F (stereo not drawn) [Compound P50]
